The text below walks through data of patent publication US20210379062A1, “The use of a H3R inverse agonist for the treatment of excessive daytime sleepiness associated with parkinson's disease (PD)” (Novartis AG, priority 2018, published 2021).

Data set [1] can be described thus: PK model (two-compartment, NONMEM) fitted to Phase I SAD/MAD concentrations. The class given is in vivo, human. Here is the method:
PK data (drug concentration over time) from Part 1 and Part 2 of the Phase I study were used in the development of the model: • 1) Part 1 is the Single Ascending Dose part; 8 different cohorts were used, with each cohort composed of 6 active subjects and 2 placebo subjects. The dose amounts used in the 8 cohorts were 0.3, 1, 3, 10, 30, 100, 300 and 800 mg. Dosing was performed at time equal to 0 hours. Additional data from the Part 3 of the Phase I study (Mechanistic biomarker study, 100 mg single dose) were lumped with this group. • 2) Part 2 is the Multiple Ascending Dose part; 4 different cohorts were used, with each cohort composed of 9 active subjects and 3 placebo subjects. The dose amounts used in the 4 cohorts were 10, 30, 50 and 100 mg. Dosing was performed once a day (in the morning) at times equal to 0, 2, 3, 4, 5, 6, 7, 8, 9, 10, 11, 12, 13, 14, 15 days.
The analysis was performed using NONMEM VII version 3 (Icon Development Solutions, Ellicott City, Md., USA), utilizing the MODESIM high performance computing environment. Pirana software was used for model editing and model submission to the cluster for running. All model building was performed using the first order conditional estimation with interaction (FOCEi) method.
A two-compartment model with combined zeroth-order and first-order absorption was used to fit the Compound (I) concentrations. The disposition kinetics were modeled using a parameterization involving apparent oral clearance (CL/F), apparent central volume (Vc/F), apparent inter-compartment clearance (Q/F), and apparent peripheral volume (Vp/F). The duration of zero-order absorption (D), a first order absorption rate constant (Ka) and an absorption delay parameter (Lag) were used to characterize the absorption process.
Between-subject variability in pharmacokinetic parameters Vc/F, CL/F, Vp/F and Ka was modeled using multiplicative exponential random effects of the form:
Residual variability was modeled using a proportional error model: […]

Data set [2] concerns the target T1, Human histamine H3 receptor (Homo sapiens, UniProt Q9Y5N1).
T1 construct: purchased PerkinElmer
Kind of data set: Radioligand binding assay with [3H]-N-α-methylhistamine. Here is the method: Human histamine H3 receptor membrane (PerkinElmer) were incubated with 1.0 nM [^3H]—N-α-methylhistamine (PerkinElmer) in the presence or absence of increasing concentrations of ligands for H3 receptor competition binding. The binding incubations were in a final volume of 0.1 ml buffer (50 mMTris pH 7.5, 5 mM MgCl2) at 28° C. for 120 minutes. Thioperamide (10 μM) was used to define non-specific binding.
All binding reactions were terminated by transferring 70 μl binding reaction from the reaction plate into filtration plates (Zeba 96-well Spin Desalting Plates, Thermo Scientific), followed by centrifugation at 1000 g for 2 min to collect the protein with bound radioligand. 200 μl of microscint-40 were added to determine the bound radiolabel by a Wallac Microbeta Trilux 2450 (Perkin Elmer). For all radioligand competition binding assays, IC50 values and Hill slopes were determined by GraphPad Prism: log(inhibitor) vs. response with variable slope. Ki was calculated using the equation in Biochem. Pharmacol. 1973. 22 (23), 3099-3108, from Cheng and Prusoff: Ki=IC50/{1+([radioligand]/Kd)}.

The next data set relates to H3 receptor. Kind of data set: Ex vivo receptor occupancy assay in rat frontal cortex. The conditions noted are these: rats; for RO: 10 mg/kg oral. Here is the method:
Male Sprague-Dawley rats (from Shanghai SLAC Laboratory Animal CO. LTD) at the age of 5-6 weeks were used. The animals were housed in a temperature and humidity-controlled environment on a 12 h light/dark cycle with food and water available ad libitum. All the procedures were approved by Institutional Animal Care and Use Committee of Chempartner Co., LTD (IACUC Protocol NO: A998HL0076).
Compounds were dissolved in 50 mM citrate buffer (pH 3.5), or saline. The compound was then diluted stepwise to the final concentration with vehicle. Animals were dosed by p.o. or i.v. in 1 ml/kg bodyweight.
At each time point, rats were decapitated immediately. Intact brain was removed, immersed and washed in pre-cooled saline. After drying with filter paper, frontal cortex was dissected with a double-blade with an about 30° angle starting at ⅓ of anterior rat brain (weight of most brain tissues around 70±10 mg). Brain tissue was transferred into a pre-weighed tube with homogenizer beads. The tubes were weighed again and the tissue net weight was recorded. Tissue sampling was done on ice with intervals of 1 min. Then, 50 mM HEPES (Gibco® by Life Technologies) buffer were added (equivalent to 3.75 μl/mg tissue weight) followed by homogenization (frequency 30/sec for 20 sec, TissueLyser, Quiagen).
The crude homogenate samples of rat frontal cortex were used to measure H3 receptor binding as described above with [^3H]—N-α-methylhistamine as radioligand. The protein concentration of each sample was determined by Pierce BCA Protein Assay Kit (Thermo).
The cortical homogenate was added to a 96-well plate containing [^3H]—N-α-methylhistamine (0.1 nM), in a volume of 0.2 ml (final protein concentration 4 μg/μl), incubated at 28° C. for 15 min and the reaction was stopped by rapid filtration using a filtration plate (Millipore multiscreen GF/B plate). The filters were washed three times with ice-cold wash buffer (50 mM Tris, pH 7.5) and 250 μl of Microscint-40 were added followed by determination of the bound radiolabel with a Wallac Microbeta Trilux 2450 (Perkin Elmer). Nonspecific binding was determined in the presence of 10 μM thioperamide. Each data point was obtained from a total of at least four animals. The inhibition of specific [^3H]NAMH binding, calculated as relative to vehicle-treated samples, was determined to provide an indication of receptor occupancy by the compound. The dose-dependent % RO and time course were analyzed using GraphPad Prism. The dose response was fit using GraphPad Prism: log(inhibitor) vs. response with variable slope.

T1 sequence (Q9Y5N1 whole entry): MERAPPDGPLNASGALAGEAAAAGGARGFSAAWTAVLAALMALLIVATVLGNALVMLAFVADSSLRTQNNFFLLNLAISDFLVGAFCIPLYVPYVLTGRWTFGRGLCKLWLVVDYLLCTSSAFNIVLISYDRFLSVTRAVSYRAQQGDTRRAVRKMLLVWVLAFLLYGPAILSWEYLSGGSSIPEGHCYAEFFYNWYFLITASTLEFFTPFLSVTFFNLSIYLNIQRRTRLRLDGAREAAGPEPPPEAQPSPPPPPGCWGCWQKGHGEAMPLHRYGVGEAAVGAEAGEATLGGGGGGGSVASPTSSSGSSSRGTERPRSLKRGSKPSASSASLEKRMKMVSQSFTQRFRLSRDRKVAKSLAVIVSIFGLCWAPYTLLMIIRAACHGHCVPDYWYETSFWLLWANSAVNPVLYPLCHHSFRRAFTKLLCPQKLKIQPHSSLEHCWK

For orientation: Ki means the equilibrium dissociation constant of an inhibitor or competing ligand from its target. Take `Cn1nc(N2CCC(OC(=O)N3CCN(C4CCC4)CC3)CC2)ccc1=O` [Compound (I), 1-(1-methyl-6-oxo-1,6-dihydropyridazin-3-yl)piperidin-4-yl 4-cyclobutylpiperazine-1-carboxylate]: in data set [1] (PK model estimate), the “CL/F (apparent oral clearance)” value was 22.8 L/h, the “D (duration of zero-order absorption)” value is 0.108 h, the “Ka (first-order absorption rate constant)” value was 2.44 h⁻¹ and the “Lag (absorption delay)” value was 0.214 h. Also, in data set [1] (PK model estimate), the “Q/F (apparent inter-compartment clearance)” value is 1.26 L/h, the “Residual Unexplained Variability” value is recorded as 34.8%, the “VC/F (apparent central volume)” value was 121 L and the “VP/F (apparent peripheral volume)” value is on record as 18.4 L. In data set [1] (between-subject variability), the “Omega CL/F” value turned out to be 40.37 % CV, the “Omega Ka” value came to 145 % CV, the “Omega Vc/F” value is on record as 23.71 % CV and the “Omega Vp/F” value was 46.48 % CV. Also, in data set [2] (human H3 receptors), the “affinity fold higher compared to bavisant” value was 12 fold and the “affinity fold higher compared to pitolisant” value was determined as 18 fold. Moreover, in data set [2] (human recombinant H3R, 1.0 nM [3H]-N-α-methylhistamine, Cheng-Prusoff), the Ki is 8.5 nM. The RO with H3 receptor (1 h time point (initial RO)) was 95%. The same molecule came in with an RO in the data set with H3 receptor (4 h) of 50%. Moreover, in the data set on H3 receptor (4 h, listed as LML134), the RO was 39%. Besides, the RO in the data set on H3 receptor (8 h) is given as 0%. Besides, in the data set with H3 receptor (8 h, listed as LML134), the RO entry is given as “almost not RO was detectable”. The “dose that resulted in H3 receptor occupancy of 80-90%” value with H3 receptor (oral dosing, 1 h after compound administration) is reported as 10 mg/kg.
